This is an account of results in ChEMBL document CHEMBL6134845, “O-derivatization of natural tropolone and β-thujaplicin leading to effective inhibitors of human carbonic anhydrases IX and XII” (Eur J Med Chem, 2025).

pKi: −log10 of the molar value. A value given as a limit tells only on which side of the number the result lay.

For one data set, the target named is Carbonic anhydrase 1 (Homo sapiens, UniProt P00915). Put plainly: Inhibition of human CA-I incubated for 15 mins by stopped-flow CO2 hydration assay.
Chain of Carbonic anhydrase 1 (P00915 whole entry): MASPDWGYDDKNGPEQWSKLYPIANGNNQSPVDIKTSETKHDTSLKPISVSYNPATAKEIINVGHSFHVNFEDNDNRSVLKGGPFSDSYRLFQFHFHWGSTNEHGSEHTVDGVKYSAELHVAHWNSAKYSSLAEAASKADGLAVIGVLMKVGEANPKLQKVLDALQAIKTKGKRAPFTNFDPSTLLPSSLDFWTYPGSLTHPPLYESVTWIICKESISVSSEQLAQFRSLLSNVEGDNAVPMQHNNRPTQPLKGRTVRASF
The target of data set [1] is Carbonic anhydrase 5A, mitochondrial (Homo sapiens, UniProt P35218). As to the kind of experiment: Inhibition of human CA-VA incubated for 15 mins by stopped-flow CO2 hydration assay.
Chain of Carbonic anhydrase 5A, mitochondrial (P35218 whole entry): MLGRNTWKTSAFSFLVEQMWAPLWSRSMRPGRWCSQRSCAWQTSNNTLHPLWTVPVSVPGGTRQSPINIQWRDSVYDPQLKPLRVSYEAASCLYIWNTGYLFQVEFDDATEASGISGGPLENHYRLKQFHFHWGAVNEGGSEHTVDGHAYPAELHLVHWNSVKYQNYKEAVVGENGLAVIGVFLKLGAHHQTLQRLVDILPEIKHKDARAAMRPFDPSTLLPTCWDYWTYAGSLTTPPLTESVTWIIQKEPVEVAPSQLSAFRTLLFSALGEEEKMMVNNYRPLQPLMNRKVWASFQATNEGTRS
The next data set addresses Carbonic anhydrase 7 (Homo sapiens, UniProt P43166). As to the kind of experiment: Inhibition of human CA-VII incubated for 15 mins by stopped-flow CO2 hydration assay.
The target of the next data set is Carbonic anhydrase 9 (Homo sapiens, UniProt Q16790).
Data set [2] concerns the target T1, Carbonic anhydrase 2 (Homo sapiens, UniProt P00918). Put plainly: Inhibition of human CA-II incubated for 15 mins by stopped-flow CO2 hydration assay.
The species entered for data set [3] is Homo sapiens. As to the kind of experiment: Inhibition of […] human CA-II H94D mutant using p-nitrophenylacetate as substrate at 500 uM preincubated for 10 mins followed by substrate addition by absorbance based assay relative to control.
Data set [4] in a line: Inhibition of […] human CA-II L198G mutant using p-nitrophenylacetate as substrate preincubated for 15 mins followed by substrate addition measured for 20 mins by absorbance based assay.
For data set [5], the target named is T1, Carbonic anhydrase 2. As to the kind of experiment: Inhibition of wild-type human CA-II using p-nitrophenylacetate as substrate preincubated for 15 mins followed by substrate addition measured for 20 mins by absorbance based assay.
A further data set concerns the target Carbonic anhydrase 12 (Homo sapiens, UniProt O43570). As to the kind of experiment: Inhibition of human CA-XII incubated for 15 mins by stopped-flow CO2 hydration assay.
For data set [6], the species on record is Homo sapiens. Put plainly: Inhibition of […] human CA-II H94C mutant using p-nitrophenylacetate as substrate at 500 uM preincubated for 10 mins followed by substrate addition by absorbance based assay relative to control.
Data set [7] can be described thus: Induction of apoptosis in human BZB-resistant NCI-H929 cells assessed as viable cells at 5 uM incubated for 48 hrs by Annexin V/7-AAD staining based FACS analysis (reference value: 86.7 %). The class given is functional. The conditions noted are these: BZB-resistant […] cell, read-out: Activity. On the technique in general: Flow cytometry measures light scatter and fluorescence of single cells or particles in a stream.

Data set [8] in a line: Induction of apoptosis in human BZB-resistant NCI-H929 cells assessed as viable cells at 2.5 uM incubated for 48 hrs by Annexin V/7-AAD staining based FACS analysis (reference value: 86.7 %). The data set is classed as functional. The following applies: BZB-resistant […] cell, read-out: Activity.
Data set [9] in a line: Antiproliferative activity against human PBMC cells assessed as decrease in cell viability at 10 uM incubated for 48 hrs by Cell Titer Glo assay. The data set is classed as toxicity, cell-based. (ATP-based viability assays read luminescence as a measure of living cells.)
A short description of data set [10]: Induction of apoptosis in human BZB-resistant NCI-H929 cells assessed as viable cells at 10 uM incubated for 48 hrs by Annexin V/7-AAD staining based FACS analysis (reference value: 86.7 %). The data set is classed as functional. The conditions noted are these: BZB-resistant […] cell, read-out: Activity.
For data set [11], the target named is T1, Carbonic anhydrase 2. Put plainly: Inhibition of wild-type human CA-II using p-nitrophenylacetate as substrate at 500 uM preincubated for 10 mins followed by substrate addition by absorbance based assay relative to control.

Chain of Carbonic anhydrase 7 (P43166 whole entry): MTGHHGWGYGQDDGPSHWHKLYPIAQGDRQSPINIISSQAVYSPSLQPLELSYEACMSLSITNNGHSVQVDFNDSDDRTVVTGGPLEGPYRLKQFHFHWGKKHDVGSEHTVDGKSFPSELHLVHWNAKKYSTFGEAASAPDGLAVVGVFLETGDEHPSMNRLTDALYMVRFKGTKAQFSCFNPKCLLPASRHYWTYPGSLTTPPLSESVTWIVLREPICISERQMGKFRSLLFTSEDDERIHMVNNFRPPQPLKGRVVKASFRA
Chain of Carbonic anhydrase 12 (O43570 whole entry): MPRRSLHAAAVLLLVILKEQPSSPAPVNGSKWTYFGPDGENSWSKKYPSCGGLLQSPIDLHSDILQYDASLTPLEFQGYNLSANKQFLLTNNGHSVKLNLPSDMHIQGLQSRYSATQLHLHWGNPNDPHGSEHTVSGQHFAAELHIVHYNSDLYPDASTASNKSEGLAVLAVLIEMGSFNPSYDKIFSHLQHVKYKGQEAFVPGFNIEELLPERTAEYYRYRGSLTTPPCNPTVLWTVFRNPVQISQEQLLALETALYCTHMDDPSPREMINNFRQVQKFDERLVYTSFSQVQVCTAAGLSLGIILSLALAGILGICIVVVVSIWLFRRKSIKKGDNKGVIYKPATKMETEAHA
Description for Carbonic anhydrase 9: Inhibition of human CA-IX incubated for 15 mins by stopped-flow CO2 hydration assay

In the case of `O=c1cccccc1OCc1ccc([N+](=O)[O-])cc1`, the negative logarithm of the Ki (pKi) (in general, the Ki on a negative log10 scale, so that one unit is a factor of ten) on Carbonic anhydrase 1 is 5.21; in data set [1], below 4.00; at Carbonic anhydrase 7, below 4.00; at Carbonic anhydrase 9 it was 4.88.
For `O=c1cccccc1OCc1cccc2ccccc12`, the pKi was below 4.00 on Carbonic anhydrase 1, 5.55 at Carbonic anhydrase 7 and 5.64 at Carbonic anhydrase 9.
For the compound `CC(C)c1cccc(=O)c(OCc2ccccc2C(F)(F)F)c1`, the values for the negative-log Ki (pKi) (in data set [1]; at Carbonic anhydrase 7) were 4.08 and below 4.00, respectively.
For `O=c1cccccc1OCc1cccc([N+](=O)[O-])c1`, the values for the pKi at Carbonic anhydrase 1, at Carbonic anhydrase 7 and on Carbonic anhydrase 9 were below 4.00, below 4.00 and 4.46, respectively.
For `CC(C)c1cccc(OCc2ccc(Br)cc2)c(=O)c1`, the pKi on Carbonic anhydrase 1 was below 4.00; in data set [1], 5.10; at Carbonic anhydrase 7, 6.02; at Carbonic anhydrase 9, 6.59.
For the compound `O=c1cccccc1O` [TROPOLONE], the negative logarithm of the Ki (pKi) was below 4.00 at Carbonic anhydrase 2 [2]; below 4.00 at Carbonic anhydrase 1; below 4.00 in data set [1]; below 4.00 on Carbonic anhydrase 7; 3.61 in data set [4]; 2.87 on Carbonic anhydrase 2 [5]. The pKi at Carbonic anhydrase 9 and on Carbonic anhydrase 12 was below 4.00 throughout. For the same compound, the inhibition (as a rule, the change of the read-out against control, counted positive when it falls) in the data set filed under Homo sapiens [3] was 47%; in the data set filed under Homo sapiens [6], 0%.
As for `CC(C)c1cccc(OCc2ccccc2C(F)(F)F)c(=O)c1`, the pKi (in data set [1]; at Carbonic anhydrase 7; at Carbonic anhydrase 9) was below 4.00 throughout.
As to `Cc1ccc(S(=O)(=O)Oc2cccccc2=O)cc1`, the pKi at Carbonic anhydrase 1 is 4.03; in [1], below 4.00; on Carbonic anhydrase 7, below 4.00; on Carbonic anhydrase 9, below 4.00.
As for `O=c1cccccc1OCc1ccccc1C(F)(F)F`, the negative-log Ki (pKi) on Carbonic anhydrase 1 is below 4.00; in data set [1], 5.18; at Carbonic anhydrase 7, 5.21; at Carbonic anhydrase 9 it was 5.37.
Regarding `O=C(O)COc1cccccc1=O`, the values for the pKi (in data set [1]; at Carbonic anhydrase 9) were 5.09 and 4.59, respectively.
Consider `Cc1ccc(S(=O)(=O)Oc2cccc(C(C)C)cc2=O)cc1`, for which the pKi at Carbonic anhydrase 1 was below 4.00; in data set [1], 5.35; at Carbonic anhydrase 7, 5.28; at Carbonic anhydrase 9, 6.40.
The matching figures for `CC(C)c1cccc(OC(=O)c2ccc([N+](=O)[O-])cc2)c(=O)c1`: below 4.00, below 4.00, 5.02 and 6.43.
For the compound `O=c1cccccc1OCc1ccc(Br)cc1`, the pKi on Carbonic anhydrase 1 is below 4.00; in [1], below 4.00; at Carbonic anhydrase 9 it was 4.42.
Regarding `CC(C)c1cccc(OCc2cccc3ccccc23)c(=O)c1`, the pKi on Carbonic anhydrase 1 was below 4.00; in [1], 4.05; on Carbonic anhydrase 7 it was 5.40; at Carbonic anhydrase 9, 6.28.
Regarding `CC(C)c1cccc(=O)c(OCc2ccccc2[N+](=O)[O-])c1`, the pKi was below 4.00 at Carbonic anhydrase 1, 5.05 in [1], 5.27 at Carbonic anhydrase 7 and 5.85 on Carbonic anhydrase 9.
Regarding `N#Cc1ccc(COc2cccccc2=O)cc1`, the pKi was 5.08 at Carbonic anhydrase 1, below 4.00 in data set [1], below 4.00 on Carbonic anhydrase 7 and below 4.00 on Carbonic anhydrase 9.
For the compound `O=C(Oc1cccccc1=O)c1ccc([N+](=O)[O-])cc1`, the negative-log Ki (pKi) at Carbonic anhydrase 1 was 4.07; on Carbonic anhydrase 7, below 4.00; at Carbonic anhydrase 9, below 4.00.
Take `O=c1cccccc1OCCCCl`: the values for the pKi at Carbonic anhydrase 1, at Carbonic anhydrase 7 and at Carbonic anhydrase 9 were below 4.00, 5.28 and 5.05, respectively.
Turning to `C#CCOc1cccccc1=O`, the figures for the pKi (at Carbonic anhydrase 1; in data set [1]) were 7.30 and below 4.00, respectively.
Regarding `Cc1ccc(S(=O)(=O)Oc2cc(C(C)C)cccc2=O)cc1`, in [7], the viability at 5 µM stood at 74.5%. Further, the pKi is below 4.00 on Carbonic anhydrase 1, 5.03 at Carbonic anhydrase 7 and 6.38 at Carbonic anhydrase 9. Besides, in data set [8], the viability at 2.5 µM came out at 78.1%. Besides, the Activity result in data set [9] is “Non-toxic”. The viability at 10 µM in data set [10] stood at 36.7%.
For `CC(C)c1cccc(OCc2ccccc2[N+](=O)[O-])c(=O)c1`, the negative logarithm of the Ki (pKi) was 4.66 in data set [1], 5.21 on Carbonic anhydrase 7 and 6.03 on Carbonic anhydrase 9.
Turning to `O=c1cccccc1S`, the negative logarithm of the Ki (pKi) in [4] is 4.21; on Carbonic anhydrase 2 [5], 4.02.
In the case of `CC(C)c1cccc(OCCCCCOc2cccc(C(C)C)cc2=O)c(=O)c1`, the pKi is below 4.00 on Carbonic anhydrase 1, 4.50 in data set [1], 5.15 on Carbonic anhydrase 7 and 5.88 at Carbonic anhydrase 9.
In the case of `O=c1cccccc1OCc1ccccc1[N+](=O)[O-]`, the negative logarithm of the Ki (pKi) on Carbonic anhydrase 1 was 5.10; in [1] it was below 4.00; at Carbonic anhydrase 7 it was below 4.00; at Carbonic anhydrase 9, below 4.00.
`CC(C)c1cccc(=O)c(O)c1` [HINOKITIOL]: the negative logarithm of the Ki (pKi) was 4.04 at Carbonic anhydrase 2 [2]; 5.30 at Carbonic anhydrase 1; 5.12 in [1]; below 4.00 on Carbonic anhydrase 7; 4.62 on Carbonic anhydrase 9; below 4.00 at Carbonic anhydrase 12. For the same compound, the inhibition stood at 47% in the data set listed under Homo sapiens [3], 16% at Carbonic anhydrase 2 [11] and 0% in the data set filed under Homo sapiens [6].
`O=c1cccccc1OCCCCCBr`: the negative logarithm of the Ki (pKi) at Carbonic anhydrase 1 was below 4.00; on Carbonic anhydrase 7, 5.82; at Carbonic anhydrase 9 it was 6.27.
In the case of `O=C(Oc1cccccc1=O)C12CC3CC(CC(C3)C1)C2`, the negative-log Ki (pKi) in data set [1] is 4.07; on Carbonic anhydrase 9, 4.36.
